This test deals with T1, Interleukin-1 receptor-associated kinase 4 (Homo sapiens, UniProt Q9NWZ3).
T1 sequence (Q9NWZ3 whole entry): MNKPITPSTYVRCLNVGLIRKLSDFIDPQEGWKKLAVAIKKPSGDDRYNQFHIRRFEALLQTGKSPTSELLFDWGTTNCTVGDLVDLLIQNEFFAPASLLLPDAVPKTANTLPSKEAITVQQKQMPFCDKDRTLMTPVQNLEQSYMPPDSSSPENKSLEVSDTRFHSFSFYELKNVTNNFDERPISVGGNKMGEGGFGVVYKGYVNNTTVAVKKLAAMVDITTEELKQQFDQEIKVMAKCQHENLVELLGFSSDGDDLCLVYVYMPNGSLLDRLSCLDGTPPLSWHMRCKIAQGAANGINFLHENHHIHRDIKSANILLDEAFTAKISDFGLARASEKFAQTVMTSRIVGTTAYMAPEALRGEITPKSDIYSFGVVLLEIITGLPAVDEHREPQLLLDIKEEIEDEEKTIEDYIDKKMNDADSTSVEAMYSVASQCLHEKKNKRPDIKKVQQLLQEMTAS
The test can be described thus: IRAK4 Biochemical HTRF Kinase Assay. As for the experimental part:
The binding capacities of certain bifunctional compounds of Formula (I) were determined using the CisBio HTRF KinEASE STK S1 Kit (#62ST1PEB, contains 5× Kinase buffer, 1× Detection Buffer, anti-phospho-serine/threonine-cryptate, Streptavidin-XL665, and STK-S1), which measures the phosphorylation of a biotinylated peptide substrate by IRAK4, according to the manufacturer's protocol. Briefly, test compounds in DMSO were serially diluted into 384 Plus White Proxiplate (PerkinElmer, #6008280) using a Labcyte Echo 550 Liquid Handler, at a concentration of 50× final in 200 nL of 100% DMSO. 7.8 μl of kinase solution, containing 1.28 nM IRAK4 in 1× Kinase Buffer (supplemented with 3 mM MgCl2, 0.01% Triton X-100, and 1 mM DTT) was added to each compound containing well and incubated at ambient temperature for 30 min. 2 μl of a reaction solution containing 5 μM STK-S1, 10 mM ATP, and 10 mM MgCl2 were added to each well to a final volume of 10 μl. Assay controls include wells containing kinase with no compound (DMSO only) and wells containing no kinase and no compound (DMSO only). The reactions were allowed to proceed at ambient temperature for 90 minutes. […] The plates were incubated for 60 minutes at ambient temperature and then read on an Envision Multilabel Reader (PerkinElmer). […]
For orientation: TR-FRET usually uses a lanthanide donor and a delayed reading to cut background.

Take `CNc1cc(-c2ccc3cc(C#N)cnn23)ncc1-c1nnc(C23CCC(NC(=O)C4CCN(c5cccc6c5C(=O)N(C5CCC(=O)NC5=O)C6=O)CC4)(CC2)CC3)s1` (stereo unspecified) [US12528814, Example 136]: half-maximal inhibition (IC50) required 1.6 nM.

As a reminder, the IC50 is the concentration that gives 50% inhibition. Read a low IC50 as inhibition by little substance.
